Source: PubChem BioAssay (NCI)
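1) Cells in 96-well plates. 2) Compound, 48 h, 5 concentrations. 3) Linear interpolation between surrounding doses. 4) Unreached endpoint = highest concentration. GI50 = concentration required for 50% inhibition of growth. TGI marks complete inhibition of growth.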

Tests used:
Assay in all cases: inhibition of tumour cell growth, NCI panel, 48 h
MDA-MB-435 = tested on: MDA-MB-435
SK-MEL-28 melanoma = tested on: SK-MEL-28 melanoma
MDA-MB-231 breast = tested on: MDA-MB-231 breast
A549 NSCLC = tested on: A549 NSCLC
SNB-19 CNS = tested on: SNB-19 CNS
NCI/ADR-RES ovarian = tested on: NCI/ADR-RES ovarian
M14 melanoma = tested on: M14 melanoma
SR leukemia = tested on: SR leukemia
SW-620 colon = tested on: SW-620 colon
SF-295 CNS = tested on: SF-295 CNS
IGROV1 ovarian = tested on: IGROV1 ovarian
SF-268 CNS = tested on: SF-268 CNS
OVCAR-5 ovarian = tested on: OVCAR-5 ovarian
MDA-N = tested on: MDA-N
UACC-62 melanoma = tested on: UACC-62 melanoma
SK-MEL-5 melanoma = tested on: SK-MEL-5 melanoma
DU-145 prostate = tested on: DU-145 prostate
HCC-2998 colon = tested on: HCC-2998 colon
CAKI-1 renal = tested on: CAKI-1 renal
HCT-15 colon = tested on: HCT-15 colon
T-47D breast = tested on: T-47D breast
NCI-H460 lung = tested on: NCI-H460 lung
HCT-116 colon = tested on: HCT-116 colon
RPMI-8226 leukemia = tested on: RPMI-8226 leukemia
NCI-H522 lung = tested on: NCI-H522 lung
MOLT-4 leukemia = tested on: MOLT-4 leukemia
OVCAR-8 ovarian = tested on: OVCAR-8 ovarian
SK-OV-3 ovarian = tested on: SK-OV-3 ovarian
RXF 393 renal = tested on: RXF 393 renal
MALME-3M melanoma = tested on: MALME-3M melanoma
HL-60(TB) leukemia = tested on: HL-60(TB) leukemia
HT29 colon = tested on: HT29 colon
UO-31 renal = tested on: UO-31 renal
SF-539 CNS = tested on: SF-539 CNS
LOX IMVI melanoma = tested on: LOX IMVI melanoma
CCRF-CEM leukemia = tested on: CCRF-CEM leukemia
U251 CNS = tested on: U251 CNS
BT-549 breast = tested on: BT-549 breast
K-562 leukemia = tested on: K-562 leukemia
OVCAR-3 ovarian = tested on: OVCAR-3 ovarian
HOP-92 NSCLC = tested on: HOP-92 NSCLC
OVCAR-4 ovarian = tested on: OVCAR-4 ovarian
COLO 205 colon = tested on: COLO 205 colon
HOP-62 NSCLC = tested on: HOP-62 NSCLC
TK-10 renal = tested on: TK-10 renal
PC-3 prostate = tested on: PC-3 prostate
HS 578T breast = tested on: HS 578T breast
786-0 renal = tested on: 786-0 renal
NCI-H23 lung = tested on: NCI-H23 lung
MCF7 breast = tested on: MCF7 breast
KM12 colon = tested on: KM12 colon
A498 renal = tested on: A498 renal
ACHN renal = tested on: ACHN renal
SN12C renal = tested on: SN12C renal
EKVX NSCLC = tested on: EKVX NSCLC
NCI-H226 lung = tested on: NCI-H226 lung
UACC-257 melanoma = tested on: UACC-257 melanoma
SNB-75 CNS = tested on: SNB-75 CNS
SK-MEL-2 melanoma = tested on: SK-MEL-2 melanoma

## O=C1C(Br)=CC2(C=C1Br)CCN=c1c2c(O)c2nc3ccccc3c3ccnc1c23
MDA-MB-435
  GI50: 1.18 µM
  TGI: 3.09 µM
SK-MEL-28 melanoma
  GI50: 0.803 µM
  TGI: 2.49 µM
MDA-MB-231 breast
  GI50: 3.59 µM
  TGI: 12.1 µM
A549 NSCLC
  GI50: 6.69 µM
  TGI: 28.4 µM
SNB-19 CNS
  GI50: 4.59 µM
  TGI: 12.1 µM
NCI/ADR-RES ovarian
  GI50: 2.04 µM
  TGI: 29.2 µM
M14 melanoma
  GI50: 1.73 µM
  TGI: 8.73 µM
SR leukemia
  GI50: 0.195 µM
  TGI: 5.83 µM
SW-620 colon
  GI50: 0.712 µM
  TGI: 1.72 µM
SF-295 CNS
  GI50: 5.97 µM
  TGI: 19.3 µM
IGROV1 ovarian
  GI50: 0.846 µM
  TGI: 7.22 µM
SF-268 CNS
  GI50: 0.672 µM
  TGI: 1.91 µM
OVCAR-5 ovarian
  GI50: 7.22 µM
  TGI: 17.6 µM
MDA-N
  GI50: 0.951 µM
  TGI: 2.22 µM
UACC-62 melanoma
  GI50: 3.31 µM
  TGI: 10.7 µM
SK-MEL-5 melanoma
  GI50: 1.4 µM
  TGI: 6.93 µM
DU-145 prostate
  GI50: 1.95 µM
  TGI: 24.8 µM
HCC-2998 colon
  GI50: 9.78 µM
  TGI: 22.3 µM
CAKI-1 renal
  GI50: 1.01 µM
  TGI: 3.29 µM
HCT-15 colon
  GI50: 0.829 µM
  TGI: 1.59 µM
T-47D breast
  GI50: 1.13 µM
  TGI: 3.76 µM
NCI-H460 lung
  GI50: 2.48 µM
  TGI: 10.6 µM
HCT-116 colon
  GI50: 0.674 µM
  TGI: 6.15 µM
RPMI-8226 leukemia
  GI50: 0.591 µM
  TGI: 1.57 µM
NCI-H522 lung
  GI50: 0.727 µM
  TGI: 1.49 µM
MOLT-4 leukemia
  GI50: 0.143 µM
  TGI: 2.67 µM
OVCAR-8 ovarian
  GI50: 0.918 µM
  TGI: 2.39 µM
SK-OV-3 ovarian
  GI50: 5.03 µM
  TGI: 11 µM
RXF 393 renal
  GI50: 1.11 µM
  TGI: 4.36 µM
MALME-3M melanoma
  GI50: 1.41 µM
  TGI: 3.44 µM
HL-60(TB) leukemia
  GI50: 2.07 µM
  TGI: 5.59 µM
HT29 colon
  GI50: 1.07 µM
  TGI: 3.02 µM
UO-31 renal
  GI50: 0.761 µM
  TGI: 1.55 µM
SF-539 CNS
  GI50: 1.55 µM
  TGI: 6.11 µM
LOX IMVI melanoma
  GI50: 1.24 µM
  TGI: 4.35 µM
CCRF-CEM leukemia
  GI50: 0.132 µM
  TGI: 0.612 µM
U251 CNS
  GI50: 1.67 µM
  TGI: 7.04 µM
BT-549 breast
  GI50: 5.83 µM
  TGI: 12.2 µM
K-562 leukemia
  GI50: 1.8 µM
  TGI: 7.9 µM
OVCAR-3 ovarian
  GI50: 1.51 µM
  TGI: 8.14 µM
HOP-92 NSCLC
  GI50: 0.593 µM
  TGI: 2.38 µM
OVCAR-4 ovarian
  GI50: 0.788 µM
  TGI: 2.22 µM
COLO 205 colon
  GI50: 1.05 µM
  TGI: 3.03 µM
HOP-62 NSCLC
  GI50: 7.99 µM
  TGI: 15.6 µM
TK-10 renal
  GI50: 3.47 µM
  TGI: 10.3 µM
PC-3 prostate
  GI50: 1.44 µM
  TGI: 5.27 µM
HS 578T breast
  GI50: 4 µM
  TGI: 17.1 µM
786-0 renal
  GI50: 0.987 µM
  TGI: 2.37 µM
NCI-H23 lung
  GI50: 1.91 µM
  TGI: 8.41 µM
MCF7 breast
  GI50: 0.765 µM
  TGI: 2.69 µM
KM12 colon
  GI50: 2.42 µM
  TGI: 8.67 µM
A498 renal
  GI50: 1.6 µM
  TGI: 6 µM
ACHN renal
  GI50: 0.753 µM
  TGI: 1.7 µM
SN12C renal
  GI50: 1.54 µM
  TGI: 5.92 µM
EKVX NSCLC
  GI50: 7.23 µM
  TGI: 15.1 µM

## O=C(NNC(=S)Nc1ccccc1)c1ccccc1Nc1ccccc1C(=O)NNC(=S)Nc1ccccc1
MDA-MB-435
  TGI: > 100 µM
SK-MEL-28 melanoma
  TGI: > 100 µM
MDA-MB-231 breast
  TGI: 61.3 µM
A549 NSCLC
  TGI: > 100 µM
SNB-19 CNS
  TGI: 72.4 µM
NCI/ADR-RES ovarian
  TGI: > 100 µM
NCI-H226 lung
  TGI: 77.9 µM
M14 melanoma
  TGI: 41.5 µM
SR leukemia
  TGI: > 100 µM
SW-620 colon
  TGI: > 100 µM
SF-295 CNS
  TGI: 57.6 µM
IGROV1 ovarian
  TGI: 32.3 µM
SF-268 CNS
  TGI: 60.6 µM
OVCAR-5 ovarian
  TGI: 33.6 µM
UACC-257 melanoma
  TGI: 56.7 µM
MDA-N
  TGI: > 100 µM
SNB-75 CNS
  TGI: > 100 µM
UACC-62 melanoma
  TGI: 26.9 µM
SK-MEL-5 melanoma
  TGI: 58.2 µM
DU-145 prostate
  TGI: > 100 µM
HCC-2998 colon
  TGI: 37.1 µM
CAKI-1 renal
  TGI: > 100 µM
HCT-15 colon
  TGI: > 100 µM
T-47D breast
  TGI: > 100 µM
NCI-H460 lung
  TGI: 49 µM
HCT-116 colon
  TGI: 35.5 µM
RPMI-8226 leukemia
  TGI: > 100 µM
NCI-H522 lung
  TGI: 46 µM
MOLT-4 leukemia
  TGI: > 100 µM
OVCAR-8 ovarian
  TGI: 52.2 µM
SK-OV-3 ovarian
  TGI: 89.8 µM
RXF 393 renal
  TGI: 45.4 µM
MALME-3M melanoma
  TGI: 52.3 µM
HL-60(TB) leukemia
  TGI: > 100 µM
HT29 colon
  TGI: 76.6 µM
UO-31 renal
  TGI: 44.6 µM
SF-539 CNS
  TGI: 59.8 µM
LOX IMVI melanoma
  TGI: 26 µM
SK-MEL-2 melanoma
  TGI: 47.1 µM
CCRF-CEM leukemia
  TGI: > 100 µM
U251 CNS
  TGI: 50.7 µM
BT-549 breast
  TGI: 57.7 µM
K-562 leukemia
  TGI: > 100 µM
OVCAR-3 ovarian
  TGI: 38.4 µM
HOP-92 NSCLC
  TGI: 30.5 µM
OVCAR-4 ovarian
  TGI: > 100 µM
COLO 205 colon
  TGI: 41.5 µM
HOP-62 NSCLC
  TGI: 60.7 µM
TK-10 renal
  TGI: 68.7 µM
PC-3 prostate
  TGI: 64.8 µM
HS 578T breast
  TGI: 74.9 µM
786-0 renal
  TGI: 41.5 µM
NCI-H23 lung
  TGI: 41.5 µM
MCF7 breast
  TGI: 83.8 µM
KM12 colon
  TGI: > 100 µM
A498 renal
  TGI: > 100 µM
ACHN renal
  TGI: > 100 µM
SN12C renal
  TGI: 57.9 µM
EKVX NSCLC
  TGI: 85.3 µM
